Active and inactive are the calls of the source. The calls are words filed in the database; no cut-off is given here.
Columns and labels:
[1] = Toxicity in BALB/c mouse assessed as changes in liver weight at 50 mg/kg, po administered for 5 days and measured after 14 days; format: organism-based; conditions: in vivo, 120 h, time 5 day
Toxoplasma gondii [2] = assay: Antiparasitic activity against Toxoplasma gondii RH infected in human Hs27 cells assessed as parasitic growth inhibition incubated for 24 hrs followed by [5,6-3H] uracil addition and measured after 72 hrs by liquid scintillation counter analysis; format: functional, organism-based
[3] = Cmax in BALB/c mouse brain at 50 mg/kg, po measured upto 24 hrs by LC-MS/MS analysis; format: ADME, organism-based; parameters: time < 24 hrs, dose 50 mg/kg, route po; conditions: in vivo
[4] = Toxicity in BALB/c mouse assessed as increase in serum ALT level at 50 mg/kg, po administered for 5 days and measured after 14 days by ELISA method; format: organism-based; conditions: in vivo, 120 h, time 5 day
[5] = Oral bioavailability in BALB/c mouse brain at 25 mg/kg measured upto 24 hrs by LC-MS/MS analysis; format: ADME, organism-based
[6] = Toxicity in BALB/c mouse assessed as changes in body weight at 25 to 50 mg/kg, po administered for 5 days and measured on day 1 and day 14; format: organism-based; conditions: in vivo, 120 h, dose 25-50 mg/kg, time 5 day
L929 = assay: Cytotoxicity against mouse L929 cells assessed as reduction in cell viability incubated for 24 hrs by MTT assay; format: toxicity, cell-based; conditions: l929, 24 h
[7] = Oral bioavailability in BALB/c mouse serum at 25 mg/kg measured upto 60 mins by LC-MS/MS analysis; format: ADME, organism-based
Toxoplasma gondii [8] = assay: Antiparasitic activity against Toxoplasma gondii DX infected in C3H/HeOuJ mouse assessed as prolongation of survival at 25 to 50 mg/kg, po administered for 5 days starting from 24 hrs post infection by Kaplan-Meier method; format: functional, organism-based; conditions: dose 25-50 mg/kg, time 5.0 day
[9] = Elimination half-life in BALB/c mouse serum at 50 mg/kg, po measured upto 60 mins by LC-MS/MS analysis; format: ADME, organism-based; conditions: in vivo, 1 h
[10] = AUC in BALB/c mouse serum at 25 mg/kg, po measured upto 60 mins by LC-MS/MS analysis; format: ADME, organism-based; parameters: dose 25 mg/kg, time < 60 min, route po; conditions: in vivo, 1 h
[11] = Elimination half-life in BALB/c mouse brain at 25 mg/kg, po measured upto 24 hrs by LC-MS/MS analysis; format: ADME, organism-based; conditions: read-out: beta t1/2 (converted)
[12] = Tmax in BALB/c mouse brain at 25 mg/kg, po measured upto 24 hrs by LC-MS/MS analysis; format: ADME, organism-based
Toxoplasma gondii [13] = assay: Antiparasitic activity against Toxoplasma gondii RH infected in BALB/c mouse assessed as prolongation of animal survival at 25 to 50 mg/kg, po administered for 5 days starting from 24 hrs post infection by Kaplan-Meier method; format: functional, organism-based; conditions: dose 25-50 mg/kg, time 5.0 day
[14] = Toxicity in BALB/c mouse assessed as changes in body weight at 1000 mg/kg, po administered once and observed for 10 days; format: organism-based; conditions: in vivo, 240 h, time 10 day
Toxoplasma gondii [15] = assay: Antiparasitic activity against Toxoplasma gondii RH infected in BALB/c mouse assessed as reduction in number of bradyzoite gene copies in muscles at 25 mg/kg, po administered every 24 hrs for 5 days starting from 24 hrs post infection by real-time qPCR analysis; format: functional; conditions: time 5 day
[16] = Elimination half-life in BALB/c mouse serum at 25 mg/kg, po measured upto 60 mins by LC-MS/MS analysis; format: ADME, organism-based; conditions: in vivo, 1 h
Toxoplasma gondii [17] = assay: Antiparasitic activity against Toxoplasma gondii RH infected in BALB/c mouse assessed as reduction of daughter tachyzoites in blood at 25 to 50 mg/kg, po administered for 5 days starting from 24 hrs post infection by real-time qPCR analysis; format: functional, organism-based; conditions: dose 25-50 mg/kg, time 5.0 day
[18] = Toxicity in BALB/c mouse assessed as microvesicular steatosis of hepatocytes at 50 mg/kg, po administered for 5 days and measured after 1 day by hematoxylin-eosin staining based microscopic analysis; format: organism-based; conditions: in vivo, 120 h, time 5 day
Toxoplasma gondii [19] = assay: Antiparasitic activity against Toxoplasma gondii RH infected in BALB/c mouse assessed as decrease in number of bradyzoite gene copies in brain at 50 mg/kg, po administered every 24 hrs for 5 days starting from 24 hrs post infection by real-time qPCR analysis; format: functional, organism-based; conditions: time 5.0 day
[20] = Tmax in BALB/c mouse serum at 25 mg/kg, po measured upto 60 mins by LC-MS/MS analysis; format: ADME, organism-based; conditions: in vivo, 1 h
[21] = AUC in BALB/c mouse serum at 50 mg/kg, po measured upto 60 mins by LC-MS/MS analysis; format: ADME, organism-based; parameters: time < 60 min, dose 50 mg/kg, route po; conditions: in vivo, 1 h
[22] = Toxicity in BALB/c mouse assessed as changes in creatinine level at 50 mg/kg, po administered for 5 days and measured on day 1 and day 14 by colorimetric assay; format: organism-based; conditions: in vivo, 120 h, time 5 day
[23] = AUC in BALB/c mouse brain at 50 mg/kg, po measured upto 24 hrs by LC-MS/MS analysis; format: ADME, organism-based; parameters: dose 50 mg/kg, time < 24 hrs, route po
[24] = Oral bioavailability in BALB/c mouse serum at 50 mg/kg measured upto 60 mins by LC-MS/MS analysis; format: ADME, organism-based
[25] = Oral bioavailability in BALB/c mouse brain at 50 mg/kg measured upto 24 hrs by LC-MS/MS analysis; format: ADME, organism-based
[26] = Toxicity in BALB/c mouse assessed as changes in liver weight at 50 mg/kg, po administered for 5 days and measured after 1 day; format: organism-based; conditions: in vivo, 120 h, time 5 day
[27] = Cmax in BALB/c mouse serum at 50 mg/kg, po measured upto 60 mins by LC-MS/MS analysis; format: ADME, organism-based; parameters: time < 60 min, dose 50 mg/kg, route po; conditions: in vivo, 1 h
Toxoplasma gondii [28] = assay: Antiparasitic activity against Toxoplasma gondii RH infected in BALB/c mouse assessed as reduction of bradyzoite gene copies in heart at 25 mg/kg, po administered every 24 hrs for 5 days starting from 24 hrs post infection by real-time qPCR analysis; format: functional, organism-based; conditions: time 5.0 day
[29] = AUC in BALB/c mouse brain at 25 mg/kg, po measured upto 24 hrs by LC-MS/MS analysis; format: ADME, organism-based; parameters: time < 24 hrs, dose 25 mg/kg, route po
[30] = Cmax in BALB/c mouse serum at 25 mg/kg, po measured upto 60 mins by LC-MS/MS analysis; format: ADME, organism-based; parameters: dose 25 mg/kg, time < 60 min, route po; conditions: in vivo, 1 h
[31] = Cmax in BALB/c mouse brain at 25 mg/kg, po measured upto 24 hrs by LC-MS/MS analysis; format: ADME, organism-based; parameters: time < 24 hrs, dose 25 mg/kg, route po; conditions: in vivo
[32] = Toxicity in BALB/c mouse assessed as changes in size of hepatocyte nuclei at 50 mg/kg, po administered for 5 days and measured after 14 days by hematoxylin-eosin staining based microscopic analysis; format: organism-based; conditions: hepatocytes, 120 h, time 5 day
[33] = Toxicity in BALB/c mouse assessed as disseminated necrosis of hepatocytes at 50 mg/kg, po administered for 5 days and measured after 1 day by hematoxylin-eosin staining based microscopic analysis; format: organism-based; conditions: in vivo, 120 h, time 5 day
[34] = Tmax in BALB/c mouse brain at 50 mg/kg, po measured upto 24 hrs by LC-MS/MS analysis; format: ADME, organism-based
[35] = Toxicity in BALB/c mouse assessed as changes in serum AST level at 50 mg/kg, po administered for 5 days and measured on day 1 and day 14 by ELISA method; format: organism-based; conditions: in vivo, 120 h, time 5 day
HS27 = assay: Cytotoxicity against human HS27 cells assessed as reduction in cell viability; format: toxicity, cell-based
Toxoplasma gondii [36] = assay: Antiparasitic activity against Toxoplasma gondii RH infected in BALB/c mouse assessed as decrease in IFNgamma level in serum at 25 to 50 mg/kg, po administered for 5 days starting from 24 hrs post infection by ELISA method; format: functional, organism-based; conditions: dose 25-50 mg/kg, time 5.0 day
[37] = Tmax in BALB/c mouse serum at 50 mg/kg, po measured upto 60 mins by LC-MS/MS analysis; format: ADME, organism-based; conditions: in vivo, 1 h
[38] = Elimination half-life in BALB/c mouse brain at 50 mg/kg, po measured upto 24 hrs by LC-MS/MS analysis; format: ADME, organism-based; conditions: read-out: beta t1/2 (converted)
Toxoplasma gondii [39] = assay: Antiparasitic activity against Toxoplasma gondii RH infected in BALB/c mouse assessed as survival rate at 50 mg/kg, po administered every 12 hrs for 5 days starting from 24 hrs post infection by Kaplan-Meier method; format: functional; conditions: 120 h, time 5 day
[40] = Toxicity in BALB/c mouse assessed as disseminated necrosis of hepatocytes at 50 mg/kg, po administered for 5 days and measured after 14 days by hematoxylin-eosin staining based microscopic analysis; format: organism-based; conditions: in vivo, 120 h, time 5 day
Toxoplasma gondii [41] = assay: Antiparasitic activity against Toxoplasma gondii RH infected in BALB/c mouse assessed as reduction in number of bradyzoite gene copies in muscles at 20 mg/kg, po administered every 24 hrs for 5 days starting from 24 hrs post infection by real-time qPCR analysis; format: functional; conditions: time 5 day
[42] = Toxicity in BALB/c mouse assessed as increase in serum AST level at 20 mg/kg, po administered for 5 days and measured on day 1 and day 14 by ELISA method; format: organism-based; conditions: in vivo, 120 h, time 5 day
Toxoplasma gondii [43] = assay: Antiparasitic activity against Toxoplasma gondii RH infected in BALB/c mouse assessed as reduction of bradyzoite gene copies in brain at 20 mg/kg, po administered every 24 hrs for 5 days starting from 24 hrs post infection by real-time qPCR analysis; format: functional, organism-based; conditions: time 5.0 day
Toxoplasma gondii [44] = assay: Antiparasitic activity against Toxoplasma gondii RH infected in BALB/c mouse assessed as decrease in IFNgamma level in serum at 20 mg/kg, po administered every 24 hrs for 5 days starting from 24 hrs post infection by ELISA method; format: functional, organism-based; conditions: time 5.0 day
Toxoplasma gondii [45] = assay: Antiparasitic activity against Toxoplasma gondii DX infected in C3H/HeOuJ mouse assessed as prolongation of survival at 20 mg/kg, po administered every 24 hrs for 5 days starting from 24 hrs post infection by Kaplan-Meier method; format: functional, organism-based; conditions: time 5.0 day
Toxoplasma gondii [46] = assay: Antiparasitic activity against Toxoplasma gondii RH infected in BALB/c mouse assessed as prolongation of animal survival at 20 mg/kg, po administered every 24 hrs for 5 days starting from 24 hrs post infection by Kaplan-Meier method; format: functional, organism-based; conditions: time 5.0 day
[47] = Toxicity in BALB/c mouse assessed as changes in liver weight at 20 mg/kg, po administered for 5 days and measured after 14 days; format: organism-based; conditions: in vivo, 120 h, time 5 day
[48] = Toxicity in BALB/c mouse assessed as hydropic degeneration at 20 mg/kg, po administered for 5 days and measured after 1 day by hematoxylin-eosin staining based microscopic analysis; format: organism-based; conditions: in vivo, 120 h, time 5 day
[49] = Toxicity in BALB/c mouse assessed as increase in creatinine level at 20 mg/kg, po administered for 5 days and measured after 1 day by colorimetric assay; format: organism-based; conditions: in vivo, 120 h, time 5 day
[50] = Toxicity in BALB/c mouse assessed as increase in serum ALT level at 20 mg/kg, po administered for 5 days and measured on day 1 and day 14 by ELISA method; format: organism-based; conditions: in vivo, 120 h, time 5 day
[51] = Toxicity in BALB/c mouse assessed as increase in liver weight at 20 mg/kg, po administered for 5 days and measured after 1 day; format: organism-based; conditions: in vivo, 120 h, time 5 day

## Cc1nc[nH]c1C(=O)NNC(=S)Nc1ccc([N+](=O)[O-])cc1
[1]
  Activity: Non-Toxic
Toxoplasma gondii [2]
  IC50: 67.5 µM
[3]
  Cmax: 32.27 ng/mg
[4]
  Activity: Non-Toxic
[5]
  bioavailability: 0.46%
[6]
  Activity: Non-Toxic
L929
  CC30: 682.98 µM
[7]
  bioavailability: 10.7%
Toxoplasma gondii [8]
  Activity: Active
[9]
  beta t1/2: 24 min
[10]
  AUC: 53700 ng·h/mL
[11]
  half-life: 175 min
[12]
  Tmax: 120 min
Toxoplasma gondii [13]
  Activity: Active
[14]
  Activity: Non-Toxic
Toxoplasma gondii [15]
  Activity: 20
[16]
  beta t1/2: 52.8 min
Toxoplasma gondii [17]
  Activity: Active
[18]
  Activity: Toxic
Toxoplasma gondii [19]
  Activity: Active
[20]
  Tmax: 30 min
[21]
  AUC: 40640 ng·h/mL
[22]
  Activity: Non-Toxic
[23]
  AUC at 24 h: 47.5 ng·h/mL
[24]
  bioavailability: 4.06%
[25]
  bioavailability: 1.17%
[26]
  Activity: Non-Toxic
[27]
  Cmax: 11080 ng/mL
Toxoplasma gondii [28]
  Activity: Active
[29]
  AUC at 24 h: 24.9 ng·h/mL
[30]
  Cmax: 6400 ng/mL
[31]
  Cmax: 7.74 ng/mg
[32]
  Activity: Toxic
[33]
  Activity: Toxic
[34]
  Tmax: 30 min
[35]
  Activity: Non-Toxic
HS27
  CC30: 697.67 µM
Toxoplasma gondii [36]
  Activity: Active
[37]
  Tmax: 15 min
[38]
  half-life: 54.6 min
Toxoplasma gondii [39]
  survival at 50 mg/kg: 20%
[40]
  Activity: Toxic

## COc1cc(Cc2cnc(N)nc2N)cc(OC)c1OC [TRIMETHOPRIM]
Toxoplasma gondii [41]
  Activity: 36
[42]
  Activity: Non-Toxic
Toxoplasma gondii [43]
  Activity: Active
Toxoplasma gondii [44]
  Activity: inactive
Toxoplasma gondii [45]
  Activity: Active
Toxoplasma gondii [46]
  Activity: Active
[47]
  Activity: Non-Toxic
[48]
  Activity: Toxic
[49]
  Activity: Toxic
[50]
  Activity: Non-Toxic
[51]
  Activity: Toxic
